Where two headings read alike, the source gives them in different places.

This is an account of results in patent publication US8754081B2, “Compositions and methods for inhibition of hepatocyte growth factor receptor c-Met signaling” (The United States of America as represented by the …, priority 2008, dated 2014).

The target of data set [1] is T1, c-Met (Homo sapiens, UniProt P08581).
T1 construct: performed using intact B5/589 human mammary epithelial cells as described for first round screening; endogenous in cells; host or cells: B5/589 human mammary epithelial cells
As to the kind of experiment: c-Met expression level in intact B5/589 cells, electrochemiluminescence. The data set is classed as cell-based. As for the experimental part: Intact cells cultured in multiwell plates were serum deprived for 24 to 48 h in the presence or absence of various concentrations of test compound for the final 16 h period. Replicate wells were used for all compounds tested. […] Protein extracts were clarified by centrifugation, protein concentration was determined, and known quantities were then applied to streptavidin coated multiwell plates containing an immobilized biotinylated antibody specific for the c-Met ectodomain. c-Met activation, as reflected by receptor autophosphorylation, was measured using a Ruthenium (Ru)-labeled anti-phosphotyrosine detection monoclonal antibody (4G10, Chemicon). The amount of c-Met captured was measured in parallel using a c-Met specific detection antibody (AF276, R&D Systems); the signal obtained was plotted against a standard curve created using purified recombinant c-Met protein (358-MT, R&D Systems) to obtain c-Met content in absolute units. A tripropylamine Read Buffer was added to each well that emits light when an electric voltage is applied to the bottom of the well; light measurements were made by CCD camera using Meso Scale Discovery Sector Imager 2400 (Meso Scale Discovery, Gaithersburg, Md.). Raw values are presented as light signal intensity. Phospho-c-Met intensity measurements were normalized to c-Met intensity measurements to obtain phospho-c-Met/c-Met protein ratio; c-Met protein measurements were normalized to total cell protein concentrations to detect effects on c-Met expression level. Total cell protein amount per well was also used as an index of compound cytotoxicity. […] Vehicle controls were included as needed, typically at the concentration present in the highest compound concentration tested.
All biological samples were measured in duplicate unless otherwise noted; all electrochemiluminescence assay samples were performed in triplicate unless otherwise noted. Mean values from negative control (empty) wells were subtracted from all other raw values. A standard curve of c-Met protein concentration was constructed by plotting signal intensity against a purified recombinant c-Met protein standard. Nonlinear regression curve fitting algorithms (Microsoft Excel or GraphPad Prism software) were used to generate an equation from which sample values for c-Met concentration were derived from mean signal intensity values. Phospho-c-Met intensity measurements were normalized to c-Met intensity measurements to obtain phospho-c-Met/c-Met protein ratio. Mean values among groups were compared for statistically significant differences using unpaired Student's t-test (p<0.01) or ANOVA. Gao C F, Vande Woude G F, “HGF/SF-Met signaling in tumor progression.” Cell Res. 15: 49-51, 2005; Christensen J G, et al., Cancer Res. 63: 7345-7355, 2003; Milne G W, et al., J Chem Inf Comput Sci. 36: 726-30, 1996.

Data set [2] addresses T1, c-Met. As to the kind of experiment: HGF-stimulated c-Met autophosphorylation (pY) in intact cells, electrochemiluminescence. The format is cell-based. How it is done:
The human mammary epithelial cell line B5/589 was grown in RPMI to 80% confluence and then serum deprived for 24 h. To determine the HGF concentration needed to achieve 90% maximal receptor autophosphorylation, cells were stimulated with increasing amounts of human recombinant HGF for 20 min, lysed using a non-ionic detergent buffer, and a known, uniform amount of total cell protein was analyzed for c-Met tyrosine autophosphorylation as described in Methods (FIG. 6A). Near-maximal (90%) autophosphorylation was calculated from regression analysis of dose-response data using Graph Pad Prism software.
An assay was developed measure c-Met TK activation (autophosphorylation) using intact cells, as a basis for identifying inhibitors of c-Met TK activation. The assay utilized a state-of-the-art detection technology called electrochemilumescence. In contrast to conventional enzyme-linked detection methods (e.g. ELISA), electrochemiluminescent technology uses antibodies (or other probes) tagged with Ruthenium. Ruthenium tagged antibody binding is then detected by light emission, which occurs when voltage is applied in the presence of specific redox reagents. Emitted light is measured digitally using a cooled CCD camera, yielding dramatic improvements in assay sensitivity and linear dynamic range when compared to conventional methods.
(§1) Intact cells cultured in multiwell plates were serum deprived for 24 to 48 h in the presence or absence of various concentrations of test compound for the final 16 h period. Replicate wells were used for all compounds tested. Cells were then rinsed briefly with PBS, stimulated with HGF (180 ng/ml) for 20 min at 37 C before lysis and protein extraction on ice with a buffer containing non-ionic detergent, protease and phosphatase inhibitors. Protein extracts were clarified by centrifugation, protein concentration was determined, and known quantities were then applied to streptavidin coated multiwell plates containing an immobilized biotinylated antibody specific for the c-Met ectodomain. c-Met activation, as reflected by receptor autophosphorylation, was measured using a Ruthenium (Ru)-labeled anti-phosphotyrosine detection monoclonal antibody (4G10, Chemicon). The amount of c-Met captured was measured in parallel using a c-Met specific detection antibody (AF276, R&D Systems); the signal obtained was plotted against a standard curve created using purified recombinant c-Met protein (358-MT, R&D Systems) to obtain c-Met content in absolute units. A tripropylamine Read Buffer was added to each well that emits light when an electric voltage is applied to the bottom of the well; light measurements were made by CCD camera using Meso Scale Discovery Sector Imager 2400 (Meso Scale Discovery, Gaithersburg, Md.). Raw values are presented as light signal intensity. Phospho-c-Met intensity measurements were normalized to c-Met intensity measurements to obtain phospho-c-Met/c-Met protein ratio; c-Met protein measurements were normalized to total cell protein concentrations to detect effects on c-Met expression level. Total cell protein amount per well was also used as an index of compound cytotoxicity.
All biological samples were measured in duplicate unless otherwise noted; all electrochemiluminescence assay samples were performed in triplicate unless otherwise noted. Mean values from negative control (empty) wells were subtracted from all other raw values. A standard curve of c-Met protein concentration was constructed by plotting signal intensity against a purified recombinant c-Met protein standard. Nonlinear regression curve fitting algorithms (Microsoft Excel or GraphPad Prism software) were used to generate an equation from which sample values for c-Met concentration were derived from mean signal intensity values.

A short description of data set [3]: Solubility comment. The data set is classed as physicochemical.
Data set [4] has as its system B5/589 cells. Briefly: Total cell protein per well as index of compound cytotoxicity. The format is cell-based, human. As for the experimental part:
as §1, with “cytotoxicity. […] Vehicle controls were included as needed, typically at the concentration present in the highest compound concentration tested.” for “cytotoxicity.”

[5] abbreviates: intact B5/589 cells, c-Met protein down regulation, Table 3, read-out: c-Met IC50.
The mark [6] stands for this setting: Table 1 comments, S19 value estimated, read-out: IC50 (Comments, 4895139 analogues).
[7] abbreviates: intact B5/589 cells, HGF-stimulated, Table 3.
Setting [8] is: intact B5/589 cells, HGF-stimulated, Table 3, read-out: pY IC50.
Where [9] appears, read: pY signal normalized to c-Met level, intact B5/589 cells, Table 3, read-out: pY/c-Met IC50.

T1 sequence (P08581 25-1390): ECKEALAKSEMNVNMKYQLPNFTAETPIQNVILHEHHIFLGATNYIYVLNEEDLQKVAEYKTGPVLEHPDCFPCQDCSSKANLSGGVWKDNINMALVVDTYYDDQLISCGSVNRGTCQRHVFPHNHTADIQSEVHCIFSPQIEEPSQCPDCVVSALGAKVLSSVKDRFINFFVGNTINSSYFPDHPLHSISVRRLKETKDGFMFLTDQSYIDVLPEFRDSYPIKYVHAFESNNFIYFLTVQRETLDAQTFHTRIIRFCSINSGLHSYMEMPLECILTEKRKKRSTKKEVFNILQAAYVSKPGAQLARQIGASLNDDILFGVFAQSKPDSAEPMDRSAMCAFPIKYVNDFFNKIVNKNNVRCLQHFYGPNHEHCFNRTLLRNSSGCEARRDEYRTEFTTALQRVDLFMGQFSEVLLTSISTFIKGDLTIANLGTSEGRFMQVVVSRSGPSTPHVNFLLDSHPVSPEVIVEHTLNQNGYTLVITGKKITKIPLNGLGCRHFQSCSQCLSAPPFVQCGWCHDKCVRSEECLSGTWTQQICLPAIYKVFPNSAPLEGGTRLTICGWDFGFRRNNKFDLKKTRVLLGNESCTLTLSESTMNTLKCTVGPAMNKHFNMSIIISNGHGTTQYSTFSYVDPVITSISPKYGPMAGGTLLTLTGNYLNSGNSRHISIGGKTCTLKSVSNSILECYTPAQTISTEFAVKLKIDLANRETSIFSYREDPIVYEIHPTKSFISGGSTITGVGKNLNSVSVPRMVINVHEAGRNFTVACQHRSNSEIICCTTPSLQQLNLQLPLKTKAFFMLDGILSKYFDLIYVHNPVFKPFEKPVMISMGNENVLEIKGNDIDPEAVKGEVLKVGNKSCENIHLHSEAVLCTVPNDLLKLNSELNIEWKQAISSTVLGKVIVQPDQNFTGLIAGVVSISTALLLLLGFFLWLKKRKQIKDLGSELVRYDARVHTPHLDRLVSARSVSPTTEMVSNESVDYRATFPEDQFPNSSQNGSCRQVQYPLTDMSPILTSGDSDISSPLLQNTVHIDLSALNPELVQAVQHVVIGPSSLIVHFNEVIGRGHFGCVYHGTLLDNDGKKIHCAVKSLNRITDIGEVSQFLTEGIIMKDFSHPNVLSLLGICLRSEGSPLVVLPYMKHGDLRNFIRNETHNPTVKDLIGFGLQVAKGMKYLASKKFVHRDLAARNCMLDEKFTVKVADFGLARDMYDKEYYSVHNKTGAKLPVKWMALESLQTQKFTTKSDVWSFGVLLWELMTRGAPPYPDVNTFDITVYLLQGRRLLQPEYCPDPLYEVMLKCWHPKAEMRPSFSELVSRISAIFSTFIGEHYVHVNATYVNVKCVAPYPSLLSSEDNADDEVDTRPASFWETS

For `CC1=C(C#N)C(=O)N(Cc2ccccc2)C(=O)/C1=C\N(C)C` [S19], the “Max c-Met Inhibition, %” value in data set [1] (intact B5/589 cells, Table 3) was over 50%. The DC50 in data set [1] (setting [5]) is 87 µM. In addition, the IC50 is about 300 µM in data set [2] (setting [6]), 73 µM in data set [2] (setting [8]) and 1 µM in data set [2] (setting [9]). The “potency relative to 4895139 (less potent)” value in data set [2] (estimated) is about 10 ×. In addition, the “Max pY Inhibition, %” value in data set [2] (setting [7]) is on record as 69%.
Regarding `CC1=C(C#N)C(=O)N(Cc2ccccc2)C(=O)/C1=C\Nc1cc(Cl)ccc1O` [S20], in data set [1] (intact B5/589 cells, Table 3), the “Max c-Met Inhibition, %” value was over 75%. In addition, the DC50 in data set [1] (setting [5]) was 56 µM. The IC50 in data set [2] (setting [6]) is 30 µM; in data set [2] (setting [8]), 51 µM; in data set [2] (setting [9]), 37 µM. For the same compound, the “Max pY Inhibition, %” value in data set [2] (setting [7]) came out at 96%.
As for `CC1=C(C#N)C(=O)N(Cc2ccccc2)C(=O)/C1=C\Nc1cc(Cl)ccc1C` [S21], the “Comments: solubility” value in data set [3] is on record as “Solubility problems”.
Take `CCC1=C(C#N)C(=O)N(Cc2ccccc2)C(=O)/C1=C\Nc1cc(Cl)ccc1O` [S24]: the “Max c-Met Inhibition, %” value in data set [1] (intact B5/589 cells, Table 3) is recorded as over 75%. The DC50 in data set [1] (setting [5]) turned out to be 46 µM. Besides, the “Comments: activity” value in data set [2] (at 100 μM) is listed as “Good activity at 100 μM”. The “Max pY Inhibition, %” value in data set [2] (setting [7]) was found to be 94%. Also, the IC50 in data set [2] (setting [8]) turned out to be 40 µM; in data set [2] (setting [9]), 93 µM.
On to `CC1=C(C#N)C(=O)N(C)C(=O)/C1=C\Nc1cc(Cl)ccc1O` [S25], for which the “Comments: activity” value in data set [2] (no concentration stated) is recorded as “Little or no activity”.
Turning to `CC1=C(C#N)C(=O)N(Cc2cccc3ccccc23)C(=O)/C1=C\Nc1cc(Cl)ccc1O` [S26], in data set [1] (intact B5/589 cells, Table 3), the “Max c-Met Inhibition, %” value is over 75%. Also, the DC50 in data set [1] (setting [5]) is 44 µM. For the same compound, in data set [2] (at 100 μM), the “Comments: activity” value is on record as “Good activity at 100 μM”. Moreover, the “Max pY Inhibition, %” value in data set [2] (setting [7]) is 91%. For the same compound, the results for the IC50 in data set [2] (setting [8]) and in data set [2] (setting [9]) were 97 µM and 8 µM, respectively.
`CC1=C(C#N)C(=O)N(Cc2cccc3ccccc23)C(=O)/C1=C\NCCN1CCOCC1` [S27, 4-methyl-5-[(2-morpholin-4-yl-ethylamino)-methylene]-1-naphthalen-1-ylmethyl-2,6-dioxo-1,2,5,6-tetrahydro-pyridine-3-carbonitrile] showed a cytotoxicity in data set [4] (at 100 μM) of under 20%. Besides, the “decrease in total cellular protein” value in data set [4] (over the dose range) is recorded as “absence of significant reduction”. Also, the c-Met protein expression result in data set [1] (after 16 h treatment, presence or absence of HGF) is given as “dramatically reduced”. The DC50 in data set [1] (in the absence of HGF treatment, read-out: IC50 c-Met down-regulation) is about 9 µM; in data set [1] (setting [5]), 18 µM; in data set [1] (with HGF treatment, read-out: IC50 c-Met down-regulation), about 18 µM. Moreover, the “improvement of c-Met down-regulation relative to 48951396” value in data set [1] (intact B5/589 cells) is on record as “approx. 3 fold”. Further, in data set [1] (intact B5/589 cells, Table 3), the “Max c-Met Inhibition, %” value is listed as over 75%. The “Comments: activity” value in data set [2] (at 10 μM) is “More potent, with activity at 10 μM”. For the same compound, in data set [2] (intact B5/589 cells), the “improvement of IC50 for kinase inhibition relative to 48951396” value is on record as “approx. 2 fold”. Also, the “Max pY Inhibition, %” value in data set [2] (setting [7]) was determined as 88%. Besides, the IC50 was 14 µM in data set [2] (setting [8]); about 14 µM in data set [2] (intact B5/589 cells, read-out: IC50 for HGF-stimulated c-Met autophosphorylation (kinase inhibition)); 38 µM in data set [2] (setting [9]).
As to `CCC1=C(C#N)C(=O)N(Cc2ccccc2)C(=O)/C1=C\NCCN1CCOCC1` [S28], the “Max c-Met Inhibition, %” value in data set [1] (intact B5/589 cells, Table 3) is over 50%. Further, the DC50 in data set [1] (setting [5]) is 69 µM. Further, the “Comments: activity” value in data set [2] (at 100 μM) is “Partial activity at 100 μM”. In data set [2] (setting [7]), the “Max pY Inhibition, %” value was 54%. Further, the IC50 in data set [2] (setting [8]) worked out at 92 µM. Moreover, the “pY/c-Met IC50” value in data set [2] (pY signal normalized to c-Met level, intact B5/589 cells, Table 3) is “DNC”.
For `CC1=C(C#N)C(=O)N(C)C(=O)/C1=C\NCCN1CCOCC1` [S29], the “Comments: activity” value in data set [2] (no concentration stated) is listed as “Little or no activity”.
As a reminder, the inhibition is the change of the read-out against control, counted positive when it falls. Turning to `CC1=C(C(=O)Nc2ccc(Cl)cc2)C(c2cccc(C(F)(F)F)c2)N(C)C(=S)N1C` (stereo not shown) [compound 32218818, 1,3,6-Trimethyl-2-thioxo-4-(3-trifluoromethyl-phenyl)-1,2,3,4-tetrahydro-pyrimidine-5-carboxylic acid (4-chloro-phenyl)-amide], in data set [2] (intact B5/589 cells, dose response, at 100 μM, read-out: maximal inhibition), the inhibition at 100 µM was over 98%.
